Assay [1] deals with tonic-extension (maximal electroshock) seizures. Briefly: Maximal electroshock seizure test. Type of assay: in vivo, mice. The note with it: 4 mg/kg i.p., tested one hour later. In general terms: In the maximal electroshock model the usual endpoint is tonic extension of the hind limbs.
Description: Abolition of the hindleg tonic extensor component of the seizure is used as the endpoint.
Another assay concerns mechanical allodynia. Briefly: Sciatic nerve ligation model, mechanical allodynia. The format is in vivo, rats. As to the method:
Just prior to surgery, rats are treated subcutaneously with 0.1 to 0.5 mg/kg of the long acting opiate buprenorphine. Rats are then anesthetized with pentobarbital and the depth of anesthesia monitored by their response to a tail pinch and observation of the depth of respiration. Sterile technique was used throughout the surgery.
The upper thigh of each rat was shaved and wiped off with ethanol and betadine. A small incision was made in the skin and through the underlying muscle of the upper thigh until the sciatic nerve was exposed. The nerve was then separated from the surrounding connective tissue and slightly elevated by a pair of fine, curved forceps. Approximately ⅓ to ½ of the nerve was then tied off by passing a needle and nylon suture (7.0) through the nerve. The muscle and skin incision was then closed sutured separately with 5.0 suture and the animals were kept warm by placing on a thermostatically controlled heat blanket until they have recovered from the anesthesia. This procedure was conducted on the right side (ipsilateral) while a sham surgery was performed on the left hind leg (contralateral). The latter involves a similar procedure with the exception that the sciatic nerve on this side was only exposed and not ligated. Twelve hours post surgery, a second dose of buprenorphine was administered to minimize any discomfort from the surgical procedure. Rats were closely monitored daily for the development of infection or untoward effects of the surgery.
After an appropriate time for recovery (e.g., 7-14 days) the animals were tested for the development of mechanical allodynia (pain response to a non-noxious stimulus). For this study, the animals placed in a bottomless plexiglass box placed on a wire mesh (¼″) platform. After a 30-60 minute acclimation period, a baseline mechanical sensitivity was determined. […] This procedure was repeated until a 50% threshold for withdrawal could be determined.

On to “Sar-Trp-Thr-Leu-Asn-Ser-Ala-Gly-Tyr-Leu-Leu-Gly-Pro-Lys-Lys-(Lys-palm)-Lys-NH2 [NAX 5055]”, for which, in assay [1], the “activity in maximal electroshock seizure test” value is “completely inactive”. Also, the “potency compared with morphine” value in the assay on mechanical allodynia (2 mg/kg i.p. vs 2 mg/kg morphine) is given as “equi-potent”. In the assay with mechanical allodynia (2 mg/kg i.p. vs 40 mg/kg gabapentin), the “potency compared with gabapentin” value is on record as “several fold more potent”. Further, the “threshold for mechanical allodynia” value in the assay with mechanical allodynia (2 mg/kg i.p., 30 min to 6 h) is given as “time-dependent increase”.

For the origin of these results see patent publication US20180340012A1, “METHODS AND CO[…] TO IMPROVING PROPERTIES OF PHARMACOLOGICAL AGENTS TARGETING NERVOUS SYSTEM” (University of Utah Research Foundation, priority 2006, published 2018).
